Laboratory results as given in ChEMBL document CHEMBL3988442, “University of Dundee, Small-Polar-MMV Screening Library” (2021).
Where “and” joins values, the source holds several entries; their conditions need not be identical. Identical values can stand only once.

Assay: In vitro enzyme assay to detect hydrolysis of chlorophenol red-beta-D-[…] directly proportional to the number of Toxoplasma stably expressing beta-galactosidase
Assay type: functional, organism-based, Toxoplasma gondii
Conditions: not given

SMILES	pIC50
O=C(NCCC1=CCCCC1)c1n[nH]c2c1CCCC2	5.49
Cc1cnc(N2CC[C@H]3[C@@H]2CCC(=O)N3c2ccccc2)nc1.O=C(O)C(F)(F)F	4.34
CC(C)NC(=O)Nc1nc2c(s1)CN(C(=O)NCc1cccs1)CC2	4.581
OC1CCN(c2ccnc(NCCc3ccccc3Cl)n2)C1 (stereo unspecified)	5.797
CN(C)CCCNCCC(Cc1ccccc1)C1CCOC(C)(C)C1.O=C(O)C(=O)O (stereo unspecified)	5.163
CC(C(=O)Nc1sccc1C(N)=O)N(C)CCOc1ccccc1 (stereo unspecified)	5.826
CCCNC(=O)c1cc(-c2cnc(N3CCCC3)nc2)cn1C	4.78 and 4.438
Cc1c(-c2cc(C(F)(F)F)nc(N3CCC(N)CC3)n2)cnn1C	5.176

Same assay, conditions: Toxoplasma gondii

SMILES	IC50 [µM]
Cn1cc(N2CC3(CCN(Cc4nccs4)CC3)OCC2=O)cn1	> 50.1
CN(Cc1cccc(C#N)c1)Cc1ccnc(N)c1	> 50.1
Cc1nn(C)c2c(=O)n(Cc3ccccc3)nnc12	> 50.1
CCc1cc(=O)[nH]c(-c2ccc(NCCc3ccc(O)cc3)nc2)n1	1.18
CCc1cccc(OCC(=O)N2CCCC(n3cncn3)C2)c1 (stereo unspecified)	28.2
O=C(NCCC1=CCCCC1)c1n[nH]c2c1CCCC2	1.7
O=C(NC1CCCC1)c1cnccn1	> 50.1
CNc1ncc2c(n1)CN(c1cccc(OC)c1)C2=O	> 50.1
CC(=O)Nc1ncc(S(=O)(=O)Nc2ccccc2)s1	> 50.1
Cc1cnc(N2CC[C@H]3[C@@H]2CCC(=O)N3c2ccccc2)nc1.O=C(O)C(F)(F)F	> 50.1
CC(C)NC(=O)Nc1nc2c(s1)CN(C(=O)NCc1cccs1)CC2	> 50.1
CC(=O)N1C[C@@H](c2ccsc2)[C@@H]2CN(Cc3ccccc3C)CC[C@@H]21	18.9
Cc1cc(CN)nc(N(C)C)n1	> 50.1
CC(C)CC1NCCNC1=O (stereo unspecified)	> 50.1
Cc1cc(C(=O)Nc2cccc(C[S+](C)[O-])c2)on1 (stereo unspecified)	> 50.1
O[C@@H]1CN(c2nc3ccccc3s2)CC[C@H]1c1ccc2c(c1)OCO2	5.27
CCCc1ccc2oc(C(=O)N3CCC(O)CC3)c(C)c2c1	> 50.1
Cc1nc2c(c(NCc3ccc(N)nc3)n1)CCCC2	> 50.1
C1CC(C2CNC2)CCO1	> 50.1
CCn1nc(C)c2nc(C(C)C)nc(NCCCn3cccn3)c21	35.2
O=C(NCc1ccc2c(c1)OCO2)n1ccnc1	> 50.1
CC(C)C(O)CCNS(=O)(=O)c1ccccc1 (stereo unspecified)	> 50.1
O=C(c1cnsn1)N1CCN(C2CC2)C(=O)C1	> 50.1

SMILES	IC50 [µM]
CCn1nc(C)c2nc(C(C)C)nc(NC)c21	> 50.1
Cc1cc(C)n(CC2CCNCC2)n1	> 50.1
Cc1ccc(F)cc1C(=O)NC1CCCNC1 (stereo unspecified)	> 50.1
Cn1cc(CN)c(C(F)(F)F)n1	> 50.1
OC1CCN(c2ccnc(NCCc3ccccc3Cl)n2)C1 (stereo unspecified)	2.35
COCCC1(CN2CCC(C(N)=O)C2)CCC1 (stereo unspecified)	> 50.1
Cc1ccc(C(=O)N2CCN(c3nccn3C)CC2)o1	> 50.1
Cc1c(C)n(Cc2ccccn2)c2nc3c(c(N)c12)CCCCCC3	6.75
COC(=O)c1cnc2[nH]nc(C)c2c1	> 50.1
Cc1cccc(NC(=O)[C@@H]2CCCN2)n1	> 50.1
CCCNS(=O)(=O)c1nc2nc(C)cc(C)n2n1	> 50.1
CCC1=NC(SCC(=O)c2ccccc2)c2cc(CC)sc2N1 (stereo unspecified)	14.9
CCCc1nc(NCCCOCC)c2c(n1)c(C)nn2CC	> 50.1
O=C(CN1CCN(C(=O)c2ccco2)CC1)NC1CC1	> 50.1
CC(=O)Nc1ncc(S(=O)(=O)Nc2cccc(F)c2)s1	> 50.1
COc1ccc(CCNC(=O)NCCCC(N)=O)cc1	> 50.1
NC(=O)C1CCN(c2nccc(-c3c[nH]nc3C3CCCCC3)n2)CC1	8.32
CSCc1ccc(C(=O)N(C)Cc2cnccn2)o1	> 50.1
CC(=O)N1N=C(c2cccnc2)CC1c1ccco1 (stereo unspecified)	> 50.1
Cc1nn(C)c2c(=O)n(Cc3ccc(F)cc3)nnc12	> 50.1
Cc1c(NC(=O)c2ccc(Br)cc2)c(C(=O)N(C)C)nn1C	> 50.1
CC(CN)C(=O)Nc1cn[nH]c1 (stereo unspecified)	> 50.1
CN(C)CCCNCCC(Cc1ccccc1)C1CCOC(C)(C)C1.O=C(O)C(=O)O (stereo unspecified)	4.6

SMILES	IC50 [µM]
CCc1ccc(CN(CCO)Cc2nccn2C)nc1	> 50.1
Cc1cncc(C(=O)N2CCCC2C(C)(C)O)c1 (stereo unspecified)	> 50.1
Nc1ccc(CN2CCN(CCO)CC2)cn1	> 50.1
CCc1cnc(N2CCNCC2)s1	> 50.1
CS(=O)(=O)CCN1CCC(C(N)=O)CC1	> 50.1
Cc1cc(NCCCOC(C)C)c2nncn2n1	> 50.1
CCN(CC)Cc1nnnn1-c1ccccc1	> 50.1
C[C@@H]1CN(C2CCN(c3ccccc3F)CC2)CC[C@]1(C)O	> 50.1
CN1CCN(Cc2c(-c3ccco3)[nH]c3ncccc23)CC1	> 50.1
CCn1c(NCc2ccc(OC)cc2)nc2c(C)nn(C)c2c1=O	> 50.1
CC(=O)Nc1ncc(S(=O)(=O)Nc2cccc(O)c2)s1	> 50.1
N#Cc1ccc(-n2nccc2N)cc1	13.6
CCN1CCc2nc(NC(=O)c3ccncc3)sc2C1	> 50.1
NC(=O)N1CCCCCC1C1CCNCC1 (stereo unspecified)	> 50.1
CC1CN(C)CCC1=O (stereo unspecified)	> 50.1
COc1ccc(NS(=O)(=O)c2cnc(NC(C)=O)s2)cc1	> 50.1
c1cnc(-c2nn3c(CN4CCOCC4)nnc3s2)cn1	> 50.1
Cn1ccnc1CN1CCC(c2ccnc(-c3cccc(O)c3)c2)C1 (stereo unspecified)	37.9
CCCc1nc(CN(CC)C(=O)c2onc3ccccc23)no1	> 50.1
c1cc(-c2c[nH]nc2C2CCCCC2)nc(N2CCCCCC2)n1	6.23
Cc1ocnc1C(=O)Nc1ccc2c(c1)NCCC2	> 50.1
CCc1nnc(Nc2cc(C)nc(C3CCN(c4ccncn4)C3)n2)s1 (stereo unspecified)	> 50.1
c1ccc(CNc2ccncc2)nc1	> 50.1

SMILES	IC50 [µM]
CC(C)(C(=O)N1CCC(N)CC1)c1cccc(F)c1	> 50.1
CN(C)C(=O)CNC(CO)c1ccc(Cl)c(F)c1 (stereo unspecified)	> 50.1
CC1CCN(CCNC(=O)Nc2ncnn2C)CC1	> 50.1
Cn1nnnc1SCCNC(=O)c1cc(Cl)ccc1F	> 50.1
CC(C)COC1CCN(S(=O)(=O)N2CCCC2)CC1	> 50.1
CCCC(=O)N1CCN(C(=O)NCC)CC1	> 50.1
CS(=O)(=O)Nc1ccccc1CNC(=O)c1ccoc1	> 50.1
CC1(C)CC(n2cccn2)C(C)(C)O1 (stereo unspecified)	> 50.1
O=C(NCCc1ncc[nH]1)c1cccnc1SC(F)F	> 50.1
O=C(CC1CCCC1)NCCc1noc(CO)n1	> 50.1
CC1CCC(NCCO)CC1 (stereo unspecified)	> 50.1
CN1CCC(NC(=O)c2cc3ccccc3s2)C1=O (stereo unspecified)	> 50.1
CC(C)(C)c1ccc(-n2ncc3c2CCCC3N)cc1 (stereo unspecified)	16.4
COCC(=O)N1C[C@@H](OCc2ccncc2)[C@@H]2OCCC[C@@H]21	> 50.1
Cn1cccc1C(=O)OCCCN1CCOCC1	> 50.1
CC(C(=O)Nc1sccc1C(N)=O)N(C)CCOc1ccccc1 (stereo unspecified)	2.24
Cc1cc(NCCO)nc(N2CCC(Cc3ccccc3)CC2)c1C#N	10.7
CSC(C)C(=O)N1CCCN(c2cccnn2)CC1 (stereo unspecified)	> 50.1
CC(C)(C)OC(=O)NCC1CC(C(N)=O)=NO1 (stereo unspecified)	> 50.1
CC(C)Cn1cc(NC(=O)N2CCC(O)C2)cn1 (stereo unspecified)	> 50.1
Cc1ccoc1C(=O)Nc1cccc(CO)n1	> 50.1
CC(C)CC(=O)N1CC[C@H]2N(C)CC[C@@]2(C(=O)Nc2ccccc2)CC1	> 50.1
COc1ncccc1C(=O)N1CCc2ccccc2C1	> 50.1

SMILES	IC50 [µM]
CCNS(=O)(=O)c1csc(C(=O)Nc2cc(C)on2)c1	> 50.1
C[C@@H]1CN(C(=O)c2cc(F)cc(C#N)c2)C[C@]1(C)O	> 50.1
CC(C)n1cc(S(=O)(=O)N2CCCCCC2)cn1	> 50.1
CC(NC(=O)c1ccc(Cl)cc1)c1nnc(SCC(=O)O)n1C (stereo unspecified)	29.3
COc1cc2cc(C(=O)NCC(=O)O)n(C)c2c(OC)c1OC	> 50.1
CCC(CC)C(O)CNC(=O)NCC1CC1 (stereo unspecified)	> 50.1
CCN(CCNS(=O)(=O)N1CCOCC1)C(=O)OC(C)(C)C	> 50.1
CCn1ccc(-c2cc(NCCCOc3ccccc3C)nc(C)n2)n1	11.7
CN1CCCN(C(=O)COc2ccc(Br)cc2)CC1	> 50.1
CCn1nc(-c2ccc(F)cc2)oc1=O	> 50.1
Cc1c(-c2cc(C(F)(F)F)nc(N3CCC(N)CC3)n2)cnn1C	4.18
COC(=O)c1cnc2c(c(C)nn2C)c1OC	> 50.1
CNc1cc(-c2cccc(OC)c2OC)nc(N)n1	> 50.1
O=C1CCCCN1c1ccc(S(=O)(=O)NC2CC2)cc1	> 50.1
CCNc1ncc2c(n1)CN(c1ccc(C)c(C)c1)C2=O	> 50.1
CSCCC1c2nc[nH]c2CCN1Cc1cc(Cl)ccc1O (stereo unspecified)	12.3
COc1cc(Br)c(CN)cc1OC	> 50.1
N#Cc1ccc(C2NC(=O)c3cccnc3N2)cc1 (stereo unspecified)	> 50.1
CCN1CC2(CC1=O)CN(Cc1ccoc1)CCN(C(=O)C(C)C)C2 (stereo unspecified)	> 50.1
O=C(c1cc(=O)[nH][nH]1)N1CCCC2(CCC(=O)N(C3CCCC3)C2)C1 (stereo unspecified)	> 50.1
COc1ccccc1NC(=O)CC#N	> 50.1
